Patent US9150575B2, “Piperidinylpyrazolopyridine derivative” (Daiichi Sankyo Company, Limited, priority 2012, dated 2015)

Molecular target: T1, LCAT (Homo sapiens, UniProt P04180)
T1 construct: The obtained fraction was dialyzed against phosphate-buffered saline (pH 7.4) and used as an enzyme source and an acceptor for LCAT; from tissue; host or cells: HDL3 fraction (1.125<specific gravity<1.210 g/mL) of plasma from a healthy person
T1 sequence (P04180 25-440): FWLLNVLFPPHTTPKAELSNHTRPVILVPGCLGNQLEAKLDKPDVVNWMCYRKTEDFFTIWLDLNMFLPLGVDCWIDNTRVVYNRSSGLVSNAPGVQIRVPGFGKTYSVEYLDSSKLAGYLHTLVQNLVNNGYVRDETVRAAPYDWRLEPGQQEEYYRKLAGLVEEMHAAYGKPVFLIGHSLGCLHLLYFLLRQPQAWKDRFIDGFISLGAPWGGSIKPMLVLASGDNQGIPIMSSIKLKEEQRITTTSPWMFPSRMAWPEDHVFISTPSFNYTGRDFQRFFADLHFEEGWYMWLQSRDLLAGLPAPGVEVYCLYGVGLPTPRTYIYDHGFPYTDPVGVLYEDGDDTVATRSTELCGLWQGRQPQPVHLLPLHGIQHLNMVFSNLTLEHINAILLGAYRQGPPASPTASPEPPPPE
Assay: LCAT Activity Measurement (In Vitro)
Format: biochemical
Settings: EC50 of LCAT activation; HDL3 fraction from plasma of a healthy person as enzyme source and acceptor; [14C]cholesterol; 37° C., approximately 16 hours
Protocol: A fraction composed of HDL3 (1.125<specific gravity<1.210 g/mL) was obtained from the plasma of a healthy person by density gradient centrifugation. The obtained fraction was dialyzed against phosphate-buffered saline (pH 7.4) and used as an enzyme source and an acceptor for LCAT. Each test drug was prepared by dissolution in dimethyl sulfoxide. [14C]Cholesterol containing DTNB (Ellman's reagent, final concentration: 0.5 mM), mercaptoethanol (final concentration: 12.5 mM), and 0.6% bovine serum albumin was added to phosphate-buffered saline (pH 7.4) containing 1 mg/mL HDL3, and the test drug was further added thereto at varying concentrations to adjust the whole amount to 80 μL. This mixture was incubated at 37° C. for approximately 16 hours. Then, a mixed solution of hexane and isopropanol (mixing ratio=3:2) was added thereto to stop the reaction. After stirring, the hexane layer was collected, and this layer was evaporated to dryness. A chloroform solution (concentration: 10 mg/mL) was added thereto, and the mixture was spotted onto a thin-layer silica gel plate and developed using a mixed solution of hexane, diethyl ether, and ethyl acetate (mixing ratio=85:15:2). The radioactivity of a portion corresponding to cholesterol oleate was measured using an imaging analyzer BAS-2500 (manufactured by Fujifilm Corp.). A sample non-supplemented with the test drug was similarly treated and assayed. The EC50 value of LCAT activation was calculated according to the expression given below relative to LCAT activity in the sample non-supplemented with the test drug.
wherein X represents the logarithm of the concentration of the test drug;
Y represents the responsiveness (LCAT activity) of the test drug;
Top represents the maximum value (maximum plateau);
Bottom represents the minimum value (minimum plateau); and
EC50 represents the 50% effective concentration.

| SMILES | EC50 [nM] |
| --- | --- |
| O=C1CC(O)(C(F)(F)F)c2c(C3CCN(c4ncc(C(F)(F)F)cn4)CC3)n[nH]c2N1 (stereo not drawn) [Example 44, 4-Hydroxy-4-(trifluoromethyl)-3-{1-[5-(trifluoromethyl)pyrimidin-2-yl]piperidin-4-yl}-1,4,5,7-tetrahydro-6H-pyrazolo[3,4-b]pyridin-6-one] | 360 |
| O=C1CC(O)(C(F)(F)F)c2c(C3CCN(c4cc(C(F)(F)F)ncn4)CC3)n[nH]c2N1 (stereo not drawn) [Example 45, 4-Hydroxy-4-(trifluoromethyl)-3-{1-[6-(trifluoromethyl)pyrimidin-4-yl]piperidin-4-yl}-1,4,5,7-tetrahydro-6H-pyrazolo[3,4-b]pyridin-6-one] | 140 |
| O=C1CC(O)(C(F)(F)F)c2c(C3CCN(c4cnc(C(F)(F)F)cn4)CC3)n[nH]c2N1 (stereo not drawn) [Example 46, 4-Hydroxy-4-(trifluoromethyl)-3-{1-[5-(trifluoromethyl)pyrazin-2-yl]piperidin-4-yl}-1,4,5,7-tetrahydro-6H-pyrazolo[3,4-b]pyridin-6-one] | 12 |
| O=C1CC(O)(C(F)(F)F)c2c(C3CCN(c4nnc(C(F)(F)F)s4)CC3)n[nH]c2N1 (stereo not drawn) [Example 47, 4-Hydroxy-4-(trifluoromethyl)-3-{1-[5-(trifluoromethyl)-1,3,4-thiadiazol-2-yl]piperidin-4-yl}-1,4,5,7-tetrahydro-6H-pyrazolo[3,4-b]pyridin-6-one] | 96 |
| O=C1CC(O)(C(F)(F)F)c2c(C3CCN(c4ccc(OC(F)F)cn4)CC3)n[nH]c2N1 (stereo not drawn) [Example 51, 3-{1-[5-(Difluoromethoxy)pyridin-2-yl]piperidin-4-yl}-4-hydroxy-4-(trifluoromethyl)-1,4,5,7-tetrahydro-6H-pyrazolo[3,4-b]pyridin-6-one] | 81 |
| CC(C)Oc1ccc(N2CCC(c3n[nH]c4c3C(O)(C(F)(F)F)CC(=O)N4)CC2)nc1 (stereo not drawn) [Example 52, 4-Hydroxy-3-{1-[5-(propan-2-yloxy)pyridin-2-yl]piperidin-4-yl}-4-(trifluoromethyl)-1,4,5,7-tetrahydro-6H-pyrazolo[3,4-b]pyridin-6-one] | 67 |
| O=C1CC(O)(C(F)(F)F)c2c(C3CCN(c4cncc(C(F)(F)F)c4)CC3)n[nH]c2N1 (stereo not drawn) [Example 53, 4-Hydroxy-4-(trifluoromethyl)-3-{1-[5-(trifluoromethyl)pyridin-3-yl]piperidin-4-yl}-1,4,5,7-tetrahydro-6H-pyrazolo[3,4-b]pyridin-6-one] | 50 |
| O=C1CC(O)(C(F)(F)F)c2c(C3CCN(c4ccc(OC(F)F)nc4)CC3)n[nH]c2N1 (stereo not drawn) [Example 54, 3-{1-[6-(Difluoromethoxy)pyridin-3-yl]piperidin-4-yl}-4-hydroxy-4-(trifluoromethyl)-1,4,5,7-tetrahydro-6H-pyrazolo[3,4-b]pyridin-6-one] | 70 |
| O=C1CC(O)(C(F)(F)F)c2c(C3CCN(c4ccc(OC(F)F)cc4)CC3)n[nH]c2N1 (stereo not drawn) [Example 55, 3-{1-[4-(Difluoromethoxy)phenyl]piperidin-4-yl}-4-hydroxy-4-(trifluoromethyl)-1,4,5,7-tetrahydro-6H-pyrazolo[3,4-b]pyridin-6-one] | 79 |
| CC(C)Oc1ccc(N2CCC(c3n[nH]c4c3C(O)(C(F)(F)F)CC(=O)N4)CC2)cn1 (stereo not drawn) [Example 57, 4-Hydroxy-3-{1-[6-(propan-2-yloxy)pyridin-3-yl]piperidin-4-yl}-4-(trifluoromethyl)-1,4,5,7-tetrahydro-6H-pyrazolo[3,4-b]pyridin-6-one] | 100 |
| O=C1CC(O)(C(F)(F)F)c2c(C3CCN(c4ccc(OC(F)(F)F)cc4)CC3)n[nH]c2N1 (stereo not drawn) [Example 58, 4-Hydroxy-3-{1-[4-(trifluoromethoxy)phenyl]piperidin-4-yl}-4-(trifluoromethyl)-1,4,5,7-tetrahydro-6H-pyrazolo[3,4-b]pyridin-6-one] | 20 |
| CCOc1ccc(N2CCC(c3n[nH]c4c3C(O)(C(F)(F)F)CC(=O)N4)CC2)cc1 (stereo not drawn) [Example 59, 3-[1-(4-Ethoxyphenyl)piperidin-4-yl]-4-hydroxy-4-(trifluoromethyl)-1,4,5,7-tetrahydro-6H-pyrazolo[3,4-b]pyridin-6-one] | 260 |
